Test results taken from patent publication US9873693B2 (Sunesis Pharmaceuticals, Inc., priority 2006, dated 2018).
Like-named read-outs stand apart in the source and are kept apart here.

Columns and labels:
phosphorylated PDK1 = phosphorylated PDK1 (Homo sapiens (Human), UniProt O15530); assay: PDK1 kinase assay (coupled PDK1/AKT/FAM-crosstide, IMAP); format: biochemical; conditions: 0.5 nM phosphorylated PDK1, 24 μM ATP; read-out: Inhibition of phospo-PDK1 in vitro IC50
full-length PDK1 = full-length PDK1 (Homo sapiens (Human), UniProt O15530); assay: PDK phosphorylation of AKT and PKC-PIFtide in presence of PIP3 vesicles; format: biochemical; conditions: substrates PKC-PIFtide vs AKT2
Protocol: PDK phosphorylation of two different substrates, AKT and PKC-PIFtide, was measured in presence of pre-formed phophoinositol lipid PIP3 vesicles. 5 nM full-length PDK1 and was incubated with 100 nM substrate (unphosphorylated, full-length AKT2 or PKC-PIFtide, Invitrogen cat#P2925) in presence of test compound or DMSO at room temperature for 3 hours. Final buffer conditions were 10 mM Tris pH 7.5 buffer containing 10 mM MgCl2, 0.002% Triton X-100, 1 mM DTT, 0.2 mg/ml BSA, 10 uM PtdIns(3,4,5)P3 (Matreya, Inc), 100 uM DOPC:DOPS (Avanti Polar Lipids), and 0.5 uCi γ^33P-ATP (3000 Ci/mmol, Perkin-Elmer.)
Kinase reactions were stopped with addition of 50 uM non-labelled ATP and 5 mM EDTA, then acidified with 0.5% final concentration phosphoric acid. Labeled proteins were collected in Whatman P81 filter plates and washed with three 150 ul volumes of 0.5% phosphoric acid.
Lipid vesicles were pre-formed as follows. 15 mg (3 ampules) DOPC:DOPS was resuspended in 898 ul 10 mM HEPES pH 7.4. 1 mg PIP3 was resuspended in 1000 ul 10 mM HEPES pH 7.4. 964 ul of PIP3 was mixed with 800 ul DOPC:DOPS and diluted with 18.2 ml 10 mM HEPES pH 7.4 and mixed by vortexing. The lipid mixture was subjected to 5 cycles of freeze/thaw using liquid nitrogen and a 50° C. water bath. Aliquot of lipids were flash frozen and stored at −20° C.

dephosphorylated PDK1 = dephosphorylated PDK1 (Homo sapiens (Human), UniProt O15530); assay: PDK1 kinase assay (coupled PDK1/AKT/FAM-crosstide, IMAP); format: biochemical; conditions: 25 nM un-phosphorylated PDK1, 24 μM ATP; read-out: Inhibition of dephospo-PDK1 in vitro IC50
How it was run: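 The FAM-crosstide phosphorylation readout was IMAP polarization (ex 485/em 530 nm, 2 h binding), with 4-parameter fits of ΔmP data. The reaction ran 30 min at 25 °C with 24 μM ATP, and contained 25 nM phosphatase-treated PDK1 (aa 51–360) plus 30 nM unphosphorylated AKT2-PIFtide and 100 nM substrate. Buffer was 10 mM Tris pH 7.2, 10 mM MgCl2, 0.01% Triton X-100 and 1 mM DTT.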

[1] = tested on: phospho-akt (thr308), phospho-PKC delta (thr505), phospho-PKC (thr538), phospho-PKC zeta (thr410); assay: Phospho-PKC detection using immunoblot in PC-3 cells; format: cell-based; conditions: FIG. 2; at 2 hours and 18 hours
Protocol: The Phospho-PKC Detection was performed using immunoblot analysis as follows. The cell activity of test compounds, were assessed using immunoblot analysis for phospho-akt (thr308), phospho-PKC delta (thr505), phospho-PKC (thr538) and phospho-PKC zeta (thr410).
PC-3 prostate cells were plated in a 100 mm tissue culture dish in F12K media (Invitrogen, Carlsbad, Calif.) plus 10% FBS (Invitrogen) and placed in incubator overnight. The stocks of test compounds were a 50 mM solution in DMSO. For some test compounds a 5 mM solution was made in DMSO then directly diluted (1 μM and 5 μM final concentration) into fresh media with no serum. For other test compounds the 50 mM stock was directly diluted (10 μM and 30 μM final concentrations) into fresh media with no serum. For the control, DMSO was added to media with no serum at a final concentration of 0.1%. Cells were incubated with compound for 2 hrs or 18 hrs at 37° C. Cells were harvested and washed in PBS and subjected to centrifugation at 3,300 rpm for 5 minutes. The cell pellet was lysed in 150 μl Pierce (Rockford, Ill.) M-PER lysis buffer plus protease inhibitors and phosphatase inhibitors (Sigma, St. Louis, Mo.) for 30 minutes on ice followed by centrifugation at 13,000 rpm for 5 minutes. The protein content of the supernatant was assayed using DC Protein Assay (BioRad, Hercules, Calif.). […]

phospho-akt (Thr308) = phospho-akt (Thr308) MSD ELISA in PC-3 cells; format: cell-based; conditions: Homo sapiens, PC-3 cells; for EC50: PC-3, 2 h, 2 hours, no serum; for inhibition at 1 µM / inhibition at 10 µM: read-out: Percent Inhibition of phospho-Akt (308) By MSD ELISA
How it was run: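 Read-out is MSD electrochemiluminescence after lysate capture overnight at 4 degrees and 1 hr RT detection-antibody step. Before lysis, overnight-plated PC-3 cells received three-fold serial dilutions of inhibitor in serum-free medium, with DMSO-only high controls.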

Phospho-T308 Akt = Phospho-T308 Akt detection using immunoblot (western blot) in PC-3 cells; format: cell-based; conditions: for Reduction of Cellular Levels of Akt p308 By Western: 2 hour incubation, concentration not given in Table 2
Protocol: A Phospho-T308 Akt detection using immunoblot (western blot) analysis was performed as described below.
PC-3 prostate cells were plated in a 6 well plate in F12K media (Invitrogen, Carlsbad, Calif.) plus 10% FBS (Invitrogen) and placed in incubator overnight. The stock of compound A was a 50 mM solution in DMSO. 1000× dilutions of the compound were made in DMSO. The 1000× dilutions include, 35 mM, 25 mM, 15 mM, 10 mM, 7 mM, 5 mM, and 1 mM. 1 μl of the 1000× dilutions was added to 1 ml F12K media without serum for final concentrations of […]. 1 μl of DMSO was added to 1 ml media with no serum for a control. The 1 ml DMSO or compound plus media was then added to the cells. Following a 2 hour incubation at 37° C., cells were harvested and washed in PBS and subjected to centrifugation at 3,300 rpm for 5 minutes. Cells were lysed in 100 μl of Bio Rad Bioplex buffer containing protease inhibitors (BioRad, Hercules, Calif.) for 30 minutes on ice followed by centrifugation at 13,000 rpm for 5 minutes. The protein content of the supernatant was assayed using DC Protein Assay (BioRad). 25 μl of protein was added to 4× sample buffer (Invitrogen) and sample reducer (Invitrogen) and run on a 4-12% NuPage gel (Invitrogen). Proteins were then transferred to nitrocellulose (Invitrogen). The membrane was blocked in Tris-buffered saline (Sigma, St. Louis, Mo.) plus 0.1% Tween (Sigma) (T-TBS) plus 5% blotting grade milk (BioRad) for 60 minutes. Membranes were then incubated in T-TBS plus 5% BSA (Sigma) plus 1:1000 of anti-phospho akt (Thr 308) (Cell Signaling Technology, Beverly, Mass.) overnight at 4° C. Membranes were washed in T-TBS then incubated in 1:2000 of anti-rabbit-HRP (Cell Signaling) in TTBS plus 5% milk. Membranes were washed again and proteins were visualized with Super Signal West Pico (Pierce, Rockford, Ill.) and using Kodak BioMax MR film (Kodak, Rochester, N.Y.).
Phospho-akt 308 protein bands on the film were quantified using densitometry. An Alpha Imager (Alpha Innotech Corp, San Leandro, Calif.) using AlphaEase FC software version 4.1.0 (Alpha Innotech Corp.) was used to quantitate protein bands. Briefly, a rectangle of equal size was placed around each protein band as well as a background spot on the film. The densitometry values (IDV=Integrated Density Value) obtained for the background spot was then subtracted from the values obtained for the protein bands. These values were used to obtain an EC50 value using non-linear regression analysis in GraphPad Prism Version 4.00 (Graph Pad Prism, San Diego, Calif.). Percent decrease in expression of phosphoh-akt 308 were also measured specifically at 2 μM and 5 μM levels of inhibitor.

[2] = read-out: Inhibition of P308 Akt in cells using MSD EC50
[3] = read-out: Reduction of Cellular Levels of Akt p308 By MSD ELISA (EC50 μM)
[4] = Homo sapiens, read-out: Percent Inhibition of phospho-Akt (308) By Western

full-length PDK1, sequence (O15530 whole entry): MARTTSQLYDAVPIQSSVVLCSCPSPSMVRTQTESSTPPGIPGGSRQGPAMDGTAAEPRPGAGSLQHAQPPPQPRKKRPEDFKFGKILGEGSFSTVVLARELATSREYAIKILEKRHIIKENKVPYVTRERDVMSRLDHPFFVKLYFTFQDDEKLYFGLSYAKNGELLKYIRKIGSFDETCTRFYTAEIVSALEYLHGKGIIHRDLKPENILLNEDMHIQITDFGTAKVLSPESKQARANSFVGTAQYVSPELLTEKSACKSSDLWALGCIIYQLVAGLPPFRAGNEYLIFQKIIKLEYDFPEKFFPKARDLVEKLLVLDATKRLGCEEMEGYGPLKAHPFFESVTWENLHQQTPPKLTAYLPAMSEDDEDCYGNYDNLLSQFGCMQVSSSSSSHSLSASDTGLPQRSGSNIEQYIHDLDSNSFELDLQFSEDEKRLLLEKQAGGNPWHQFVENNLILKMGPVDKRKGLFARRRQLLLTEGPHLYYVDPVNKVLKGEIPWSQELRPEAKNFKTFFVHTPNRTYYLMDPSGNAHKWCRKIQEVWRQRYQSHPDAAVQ
dephosphorylated PDK1, sequence (O15530 51-360): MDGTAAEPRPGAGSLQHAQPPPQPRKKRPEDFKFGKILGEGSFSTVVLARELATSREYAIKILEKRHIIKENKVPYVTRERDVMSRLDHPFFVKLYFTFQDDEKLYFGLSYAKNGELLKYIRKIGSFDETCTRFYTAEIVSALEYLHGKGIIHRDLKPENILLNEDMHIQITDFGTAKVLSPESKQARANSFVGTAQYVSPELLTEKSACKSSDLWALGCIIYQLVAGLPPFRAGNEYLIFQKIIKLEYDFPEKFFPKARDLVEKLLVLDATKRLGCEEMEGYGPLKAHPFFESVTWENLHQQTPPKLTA
phosphorylated PDK1, sequence (O15530 51-360): as above

## O=C(NCCCCc1c[nH]c2ncccc12)c1cccn(Cc2ccc(F)c(F)c2)c1=O [Cpd 110]
Phosphorylated PDK1
  IC50: < 0.5 µM
full-length PDK1
  Ratio of PIP3 IC50 with PKCtide to PIP3 IC50 with AKT: 13.5
Dephosphorylated PDK1
  IC50: < 0.5 µM

## O=C(N[C@@H](COc1ccc2[nH]c(=O)[nH]c2c1)c1ccccc1)c1cccn(Cc2ccc(F)c(F)c2)c1=O [Cpd 144]
[1]
  inhibition of PDK1 mediated phosphorylation of Akt relative to PKC isoforms: selective inhibition of PDK1 mediated phosphorylation of Akt relative to PDK1 mediated phosphorylation of PKC isoforms
phospho-akt (Thr308); [2]
  EC50: < 1 µM
phospho-akt (Thr308); [3]
  EC50: < 1 µM
Phospho-T308 Akt
  Reduction of Cellular Levels of Akt p308 By Western: bbb (inhibition of more than 75%)
Phospho-T308 Akt; Homo sapiens, at 2 μM, read-out: Percent Inhibition of phospho-Akt (308) By Western
  inhibition at 2 µM: > 75%

## COc1ccnc(NCCC#CCNC(=O)c2cccn(Cc3ccc(F)c(F)c3)c2=O)n1 [Cpd 109]
Phosphorylated PDK1
  IC50: < 0.5 µM
full-length PDK1
  Ratio of PIP3 IC50 with PKCtide to PIP3 IC50 with AKT: 51.8
Dephosphorylated PDK1
  IC50: < 0.5 µM

## COc1ccnc(NCCC#CCCNC(=O)c2cccn(Cc3cccc(Cl)c3)c2=O)n1 [Cpd 102]
Phosphorylated PDK1
  IC50: 0.5 to 10 µM
full-length PDK1
  Ratio of PIP3 IC50 with PKCtide to PIP3 IC50 with AKT: 19.1
Dephosphorylated PDK1
  IC50: < 0.5 µM

## O=C(NCc1ccc(-c2c[nH]c3ncccc23)s1)c1cccn(Cc2ccc(F)c(F)c2)c1=O [Cpd 2]
Phosphorylated PDK1
  IC50: < 0.5 µM
phospho-akt (Thr308); [2]
  EC50: 1 to 5 µM
phospho-akt (Thr308); [3]
  EC50: 1 to 5 µM
full-length PDK1
  Ratio of PIP3 IC50 with PKCtide to PIP3 IC50 with AKT: 36.7
Dephosphorylated PDK1
  IC50: < 0.5 µM

## C[C@@H](c1ccc(Cl)cc1)n1cccc(C(=O)NCc2noc(-c3c[nH]c4ncccc34)n2)c1=O [Cpd 300]
Phosphorylated PDK1
  IC50: < 0.5 µM
phospho-akt (Thr308); [2]
  EC50: 1 to 5 µM
phospho-akt (Thr308)
  inhibition at 1 µM: 25 to 75%
  inhibition at 10 µM: > 75%
Dephosphorylated PDK1
  IC50: < 0.5 µM
Phospho-T308 Akt
  Reduction of Cellular Levels of Akt p308 By Western: bbb (inhibition of more than 75%)
Phospho-T308 Akt; [4]
  inhibition at 5 µM: > 75%

## O=C(NCc1noc(-c2c[nH]c3ncccc23)n1)c1cccn(Cc2ccc(Cl)cc2)c1=O [Cpd 305]
Phosphorylated PDK1
  IC50: < 0.5 µM
phospho-akt (Thr308); [2]
  EC50: 1 to 5 µM
phospho-akt (Thr308)
  inhibition at 1 µM: < 25%
  inhibition at 10 µM: > 75%
Dephosphorylated PDK1
  IC50: < 0.5 µM
Phospho-T308 Akt
  Reduction of Cellular Levels of Akt p308 By Western: bbb (inhibition of more than 75%)
Phospho-T308 Akt; [4]
  inhibition at 5 µM: > 75%

## NC[C@@H](NC(=O)c1cccn(Cc2ccc(F)c(F)c2)c1=O)c1nnc(-c2c[nH]c3ncccc23)o1 [Cpd 283]
Phosphorylated PDK1
  IC50: < 0.5 µM
phospho-akt (Thr308); [2]
  EC50: 1 to 5 µM
phospho-akt (Thr308); [3]
  EC50: 1 to 5 µM
Dephosphorylated PDK1
  IC50: < 0.5 µM
Phospho-T308 Akt
  Reduction of Cellular Levels of Akt p308 By Western: bb (inhibition of from 25% to 75%)
Phospho-T308 Akt; [4]
  inhibition at 5 µM: 25 to 75%
